Data taken from article PMC12573178, “Substrate-Guided Development of HDAC11-Selective Inhibitors Featuring α‑Amino Amide Zinc-Binding Groups” (ACS Omega, 2025).

Target: T1, SIRT2 (Homo sapiens, UniProt Q8IXJ6)
T1 sequence (Q8IXJ6 1-389): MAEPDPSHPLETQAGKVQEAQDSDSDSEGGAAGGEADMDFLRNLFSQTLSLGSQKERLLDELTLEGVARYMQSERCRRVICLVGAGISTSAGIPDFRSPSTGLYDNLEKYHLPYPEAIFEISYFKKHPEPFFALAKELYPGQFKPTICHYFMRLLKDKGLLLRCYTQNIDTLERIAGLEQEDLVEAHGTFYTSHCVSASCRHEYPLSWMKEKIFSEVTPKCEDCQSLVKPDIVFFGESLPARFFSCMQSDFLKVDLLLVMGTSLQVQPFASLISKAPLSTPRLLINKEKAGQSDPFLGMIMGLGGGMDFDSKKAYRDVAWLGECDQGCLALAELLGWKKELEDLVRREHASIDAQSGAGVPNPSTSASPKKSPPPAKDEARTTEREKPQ
Experiment: SIRT2 inhibition assays (continuous / discontinuous demyristoylation)
Format: biochemical
Protocol: Inhibition of the enzymatic activity of HDACs was performed continuously for HDAC8, HDAC11, and SIRT2 and discontinuously for SIRT2, 3, and 6 using adequate substrates as described previously. , Experimental details are given in the Supporting Information.
A. HDAC and SIRT deacylase activity assays
Continuous in vitro HDAC inhibition assays
The inhibitors were tested using 384-well plates (GreinerONe). After 5 min of incubation of the inhibitors together with the respective enzymes (HDAC8 = 2 nM, HDAC11 = 20 nM, SIRT2 = 1 nM), the reactions were always started by the addition of substrate for the Zn2+-dependent HDAC and by the addition of NAD+ for SIRT2. […]
The fluorescence increase was followed for 1 h with two reads per min using a PerkinElmer Envision 2104 multilabel plate reader. […] The measured values were normalized accordingly. […] The data were fitted using the GraphPad Prism8 software and kinetic values calculated through non-linear regression analysis. […]
Reactions were stopped after 20 min by adding a constant volume of reaction mixture to stop solution (5 % acetonitrile (ACN) (v/v) and 1 % trifluoroacetic acid (TFA) (v/v) in dd. H 2O). The samples were analysed using HPLC-UV/VIS at λ Abs = 220 nm, λ Ex = 320 nm und λ Em = 420 nm. […]
100 nM, SIRT3: 200 nM, SIRT6: 500 nM). […] The samples were analysed using HPLC-UV/VIS at λ Abs = 360 nm. […]

IC50: > 20 µM | inhibition at 50 µM (50 μM 31): 41.5%
Compound: CCCCCCCCCCCCSC[C@@H](N)C(=O)NCCCC[C@@H]1NC(=O)[C@H](CCC(N)=O)NC1=O [Compound 31]
